Experimental data: patent publication US12172983B2, “EGFR inhibitors” (Blueprint Medicines Corporation, priority 2019, dated 2024)
Where two headings read alike, the source gives them in different places.

How the values were obtained:
[1] = molecular target: T1, EGFR (L858R T790M C797S) (Homo sapiens, UniProt P00533, C797S/L858R/T790M); experiment: Biochemical EGFR inhibition assay (Caliper mobility shift), EGFR LRTMCS mutant; settings: inhibitory activity against EGFR LRTMCS mutant; apparent IC50; read-out: Ext Enz LRTMCS
T1 construct: purchased SignalChem E10-122VG
Outline: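 Apparent IC50s were derived by plotting percent activity against the log of compound concentration. Activity was measured as phosphopeptide electrophoretically separated from substrate, after reactions at room temperature reached 10% to 20% phosphorylation and were halted with 35 mM EDTA.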

[2] = system: phosphorylation of EGFR (Tyr1068) in NCI-H1975 cell line that harbors the EGFR L858R T790M mutations; experiment: NCI-H1975 pEGFR AlphaLISA assay; assay type: cell-based; settings: 4-5 hours incubation, read-out: Ext pEGFR H1975
Outline: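 NCI-H1975 cells (EGFR L858R/T790M) seeded overnight, then treated with compound for 4-5 h at 37 °C/5% CO2. After lysis, p-EGFR (Tyr1068) quantified by AlphaLISA SureFire Ultra with acceptor then donor beads; IC50 fitted from percent inhibition versus log concentration.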

[3] = Homo sapiens, NCI-H1975, inhibition of phosphorylation of mutant EGFR in NCI-H1975 cells

T1 sequence (P00533 25-1210 T790M/C797S/L858R): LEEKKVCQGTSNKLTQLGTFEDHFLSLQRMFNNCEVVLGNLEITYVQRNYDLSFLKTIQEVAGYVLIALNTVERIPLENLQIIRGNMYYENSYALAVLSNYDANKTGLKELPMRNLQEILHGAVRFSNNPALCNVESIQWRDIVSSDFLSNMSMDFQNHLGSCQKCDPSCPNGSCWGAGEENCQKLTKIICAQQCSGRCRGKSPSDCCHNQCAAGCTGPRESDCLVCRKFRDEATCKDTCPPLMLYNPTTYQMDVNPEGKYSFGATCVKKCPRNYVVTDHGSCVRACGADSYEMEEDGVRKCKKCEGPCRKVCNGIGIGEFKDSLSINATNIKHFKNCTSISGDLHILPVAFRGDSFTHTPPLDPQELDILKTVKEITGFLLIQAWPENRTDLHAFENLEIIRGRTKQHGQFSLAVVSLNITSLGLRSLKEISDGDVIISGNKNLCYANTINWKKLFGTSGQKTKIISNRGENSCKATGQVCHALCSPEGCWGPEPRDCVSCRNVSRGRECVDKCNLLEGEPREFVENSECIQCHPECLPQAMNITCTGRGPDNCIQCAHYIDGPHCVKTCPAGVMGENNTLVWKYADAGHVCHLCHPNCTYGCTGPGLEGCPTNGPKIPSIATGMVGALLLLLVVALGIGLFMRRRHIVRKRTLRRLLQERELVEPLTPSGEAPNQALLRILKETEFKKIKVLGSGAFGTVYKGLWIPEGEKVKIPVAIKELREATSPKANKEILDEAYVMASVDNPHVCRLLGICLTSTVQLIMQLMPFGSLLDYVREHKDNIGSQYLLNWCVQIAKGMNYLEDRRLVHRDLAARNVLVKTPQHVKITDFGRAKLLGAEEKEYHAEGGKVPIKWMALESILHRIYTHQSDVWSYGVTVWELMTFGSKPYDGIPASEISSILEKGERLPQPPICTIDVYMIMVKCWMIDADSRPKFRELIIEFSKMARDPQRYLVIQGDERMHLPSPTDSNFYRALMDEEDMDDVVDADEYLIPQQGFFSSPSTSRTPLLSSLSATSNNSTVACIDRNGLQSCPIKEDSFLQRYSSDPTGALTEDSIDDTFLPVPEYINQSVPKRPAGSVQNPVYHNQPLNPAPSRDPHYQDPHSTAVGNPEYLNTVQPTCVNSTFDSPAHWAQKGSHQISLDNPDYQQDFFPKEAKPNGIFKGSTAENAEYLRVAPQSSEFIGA

Row | IC50 [1] | IC50 [2, 3] | IC50 ([2]; inhibition of phosphorylation of mutant EGFR in NCI-H1975 cells) | SMILES
1 | ≤ 0.015 µM | 0.0101 to 0.02 µM |  | CO[C@H]1CN(c2nccc(Nc3cc4c(C(C)C)cnc(N5C[C@H](CS(C)(=O)=O)[C@H]5C)c4cn3)n2)C[C@@H](F)[C@H]1O (single isomer, unassigned) [Compound 308, (3R,4S,5S)-3-fluoro-1-[4-({8-[(2R,3S)-3-(methanesulfonylmethyl)-2-methylazetidin-1-yl]-5-(propan-2-yl)-2,7-naphthyridin-3-yl}amino)pyrimidin-2-yl]-5-methoxypiperidin-4-ol or (3S,4R,5R)-3-fluoro-1-[4-({8-[(2R,3S)-3-(methanesulfonylmethyl)-2-methylazetidin-1-yl]-5-(propan-2-yl)-2,7-naphthyridin-3-yl}amino)pyrimidin-2-yl]-5-methoxypiperidin-4-ol]
2 | 0.0151 to 0.02 µM | 0.0301 to 0.05 µM |  | COC1(CN)CCN(c2nccc(Nc3cc4c(C(C)C)ccc(N5C[C@H](CS(C)(=O)=O)[C@H]5C)c4cn3)n2)CC1 [Compound 169, N-{2-[4-(aminomethyl)-4-methoxypiperidin-1-yl]pyrimidin-4-yl}-8-[(2R,3S)-3-(methanesulfonylmethyl)-2-methylazetidin-1-yl]-5-(propan-2-yl)isoquinolin-3-amine]
3 | 0.0151 to 0.02 µM | ≤ 0.01 µM |  | CCS(=O)(=O)C[C@H]1CN(c2ncc(C(C)C)c3cc(Nc4ccnc(N5CC[C@@](C)(O)C(F)(F)C5)n4)ncc23)[C@@H]1C (single isomer, unassigned) [Compound 230, (4R)-1-[4-({8-[(2R,3S)-3-[(ethanesulfonyl)methyl]-2-methylazetidin-1-yl]-5-(propan-2-yl)-2,7-naphthyridin-3-yl}amino)pyrimidin-2-yl]-3,3-difluoro-4-methylpiperidin-4-ol or (4S)-1-[4-({8-[(2R,3S)-3-[(ethanesulfonyl)methyl]-2-methylazetidin-1-yl]-5-(propan-2-yl)-2,7-naphthyridin-3-yl}amino)pyrimidin-2-yl]-3,3-difluoro-4-methylpiperidin-4-ol]
4 | ≤ 0.015 µM | 0.0201 to 0.03 µM |  | COc1ccc(N2CC(CS(C)(=O)=O)C2)c2cnc(Nc3ccnc(N4CC[C@@H](O)[C@@](C)(F)C4)n3)cc12 (single isomer, unassigned) [Compound 32]
5 | 0.0301 to 0.1 µM | 0.0201 to 0.03 µM |  | CC(C)c1ccc(N2C[C@H](CS(C)(=O)=O)[C@H]2C)c2cnc(Nc3ccnc(N4CC[C@H](F)[C@H](O)C4)n3)cc12 (single isomer, unassigned) [Compound 268, (3R,4S)-4-fluoro-1-[4-({8-[(2R,3S)-3-(methanesulfonylmethyl)-2-methylazetidin-1-yl]-5-(propan-2-yl)isoquinolin-3-yl}amino)pyrimidin-2-yl]piperidin-3-ol or (3S,4R)-4-fluoro-1-[4-({8-[(2R,3S)-3-(methanesulfonylmethyl)-2-methylazetidin-1-yl]-5-(propan-2-yl)isoquinolin-3-yl}amino)pyrimidin-2-yl]piperidin-3-ol]
6 | ≤ 0.015 µM | ≤ 0.01 µM |  | CO[C@H]1CCN(c2nccc(Nc3cc4c(C(C)C)ncc(N5C[C@H](CS(C)(=O)=O)[C@H]5C)c4cn3)n2)C[C@H]1F [Compound 140, N-{2-[(3R,4S)-3-fluoro-4-methoxypiperidin-1-yl]pyrimidin-4-yl}-8-[(2R,3S)-3-(methanesulfonylmethyl)-2-methylazetidin-1-yl]-5-(propan-2-yl)-2,6-naphthyridin-3-amine]
7 | ≤ 0.015 µM | ≤ 0.01 µM |  | CCS(=O)(=O)C[C@H]1CN(c2ccc(C(C)C)c3cc(Nc4ccnc(N5CC[C@H](OC)[C@@H](O)C5)n4)ncc23)[C@@H]1C (single isomer, unassigned) [Compound 177, (3S,4S)-1-(4-(8-((2R,3S)-3-(ethylsulfonylmethyl)-2-methylazetidin-1-yl)-5-isopropylisoquinolin-3-ylamino)pyrimidin-2-yl)-4-methoxypiperidin-3-ol or (3R,4R)-1-(4-(8-((2R,3S)-3-(ethylsulfonylmethyl)-2-methylazetidin-1-yl)-5-isopropylisoquinolin-3-ylamino)pyrimidin-2-yl)-4-methoxypiperidin-3-ol]
8 | 0.0151 to 0.02 µM | ≤ 0.01 µM |  | CO[C@H]1CN(c2nccc(Nc3cc4c(C(C)C)ccc(N5C[C@H](CS(C)(=O)=O)[C@H]5C)c4cn3)n2)C[C@@H](F)[C@H]1O (racemic) [Compound 200, (3R,4S,5S)-3-fluoro-1-(4-((5-isopropyl-8-((2R,3S)-2-methyl-3-((methylsulfonyl)methyl)azetidin-1-yl)isoquinolin-3-yl)amino)pyrimidin-2-yl)-5-methoxypiperidin-4-ol and (3S,4R,5R)-3-fluoro-1-(4-((5-isopropyl-8-((2R,3S)-2-methyl-3-((methylsulfonyl)methyl)azetidin-1-yl)isoquinolin-3-yl)amino)pyrimidin-2-yl)-5-methoxypiperidin-4-ol]
9 | ≤ 0.015 µM | ≤ 0.01 µM |  | CNCCO[C@H]1CCN(c2nccc(Nc3cc4c(C(C)C)ccc(N5C[C@H](CS(C)(=O)=O)[C@H]5C)c4cn3)n2)C[C@H]1F [Compound 297, N-{2-[(3R,4S)-3-fluoro-4-[2-(methylamino)ethoxy]piperidin-1-yl]pyrimidin-4-yl}-8-[(2R,3S)-3-(methanesulfonylmethyl)-2-methylazetidin-1-yl]-5-(propan-2-yl)isoquinolin-3-amine]
10 | ≤ 0.015 µM | ≤ 0.01 µM |  | CCS(=O)(=O)C[C@H]1CN(c2nnc(C(C)C)c3cc(Nc4ccnc(N5CC[C@@H](OC)[C@@H](F)C5)n4)ncc23)[C@@H]1C [Compound 206, N-{4-[(2R,3S)-3-[(ethanesulfonyl)methyl]-2-methylazetidin-1-yl]-1-(propan-2-yl)pyrido[3,4-d]pyridazin-7-yl}-2-[(3S,4R)-3-fluoro-4-methoxypiperidin-1-yl]pyrimidin-4-amine]
11 | ≤ 0.015 µM | ≤ 0.01 µM |  | CCc1ccc(N2C[C@H](CS(C)(=O)=O)[C@H]2C)c2cnc(Nc3ccnc(N4CC[C@@H](O)[C@@](C)(F)C4)n3)cc12 (single isomer, unassigned) [Compound 65]
12 | ≤ 0.015 µM | 0.0101 to 0.02 µM |  | CC(C)c1ccc(N2CC(CS(C)(=O)=O)C2)c2cnc(Nc3ccnc(N4CC[C@](C)(O)[C@](C)(F)C4)n3)cc12 (single isomer, unassigned) [Compound 113, (3R,4S)-3-fluoro-1-[4-({8-[3-(methanesulfonylmethyl)azetidin-1-yl]-5-(propan-2-yl)isoquinolin-3-yl}amino)pyrimidin-2-yl]-3,4-dimethylpiperidin-4-ol or (3S,4R)-3-fluoro-1-[4-({8-[3-(methanesulfonylmethyl)azetidin-1-yl]-5-(propan-2-yl)isoquinolin-3-yl}amino)pyrimidin-2-yl]-3,4-dimethylpiperidin-4-ol]
13 | ≤ 0.015 µM | ≤ 0.01 µM |  | COC1CCN(c2nccc(Nc3cc4c(C(C)C)cnc(N5CC(CS(C)(=O)=O)C5)c4cn3)n2)CC1 [Compound 22, 8-[3-(methanesulfonylmethyl)azetidin-1-yl]-N-[2-(4-methoxypiperidin-1-yl)pyrimidin-4-yl]-5-(propan-2-yl)-2,7-naphthyridin-3-amine]
14 | ≤ 0.015 µM | ≤ 0.01 µM |  | CCS(=O)(=O)C[C@H]1CN(c2cccc3cc(Nc4ccnc(N5C[C@@H](F)[C@@H](O)C(C)(C)C5)n4)ncc23)[C@@H]1C (single isomer, unassigned) [Compound 66, (4S,5R)-1-[4-({8-[(2R,3S)-3-[(ethanesulfonyl)methyl]-2-methylazetidin-1-yl]isoquinolin-3-yl}amino)pyrimidin-2-yl]-5-fluoro-3,3-dimethylpiperidin-4-ol or (4R,5S)-1-[4-({8-[(2R,3S)-3-[(ethanesulfonyl)methyl]-2-methylazetidin-1-yl]isoquinolin-3-yl}amino)pyrimidin-2-yl]-5-fluoro-3,3-dimethylpiperidin-4-ol]
15 | ≤ 0.015 µM | ≤ 0.01 µM |  | CC(C)c1ccc(N2C[C@H](CS(C)(=O)=O)[C@H]2C)c2cnc(Nc3ccnc(N4CCC(C)(O)CC4)n3)cc12 (single isomer, unassigned) [Compound 46]
16 | ≤ 0.015 µM | ≤ 0.01 µM |  | C[C@@H]1[C@@H](CS(C)(=O)=O)CN1c1cccc2cc(Nc3ccnc(N4C[C@H](F)[C@H](O)C(C)(C)C4)n3)ncc12 (single isomer, unassigned) [Compound 30, (4S,5R)-5-fluoro-1-[4-({8-[(2R,3S)-3-(methanesulfonylmethyl)-2-methylazetidin-1-yl]isoquinolin-3-yl}amino)pyrimidin-2-yl]-3,3-dimethylpiperidin-4-ol or (4R,5S)-5-fluoro-1-[4-({8-[(2R,3S)-3-(methanesulfonylmethyl)-2-methylazetidin-1-yl]isoquinolin-3-yl}amino)pyrimidin-2-yl]-3,3-dimethylpiperidin-4-ol]
17 | 0.0151 to 0.02 µM |  | 0.0101 to 0.02 µM | CC(C)c1ccc(N2CC(CS(C)(=O)=O)C2)c2cnc(Nc3ccnc(N4CC[C@H](O)[C@H](C)C4)n3)cc12 (single isomer, unassigned) [Compound 19, (3S,4R)-1-[4-({8-[3-(methanesulfonylmethyl)azetidin-1-yl]-5-(propan-2-yl)isoquinolin-3-yl}amino)pyrimidin-2-yl]-3-methylpiperidin-4-ol or (3R,4S)-1-[4-({8-1,3-(methanesulfonylmethyl)azetidin-1-yl]-5-(propan-2-yl)isoquinolin-3-yl}amino)pyrimidin-2-yl]-3-methylpiperidin-4-ol]
18 | ≤ 0.015 µM | 0.0201 to 0.03 µM |  | CC(CF)c1ccc(N2CC(CS(C)(=O)=O)C2)c2cnc(Nc3ccnc(N4CC[C@@H](O)[C@@](C)(F)C4)n3)cc12 (single isomer, unassigned) [Compound 154]
